From patent US11007183B2, “Cancer treatments using combinations of PI3K/Akt pathway and ERK inhibitors” (BIOMED VALLEY DISCOVERIES, INC., priority 2013, dated 2021)
pIC50: −log10 of the molar value.

Tests used:
[1] = test system: HCT116 human colorectal carcinoma xenograft; assay: HCT116 xenograft tumor growth delay (TGD) study; assay type: in vivo, mice
Protocol: Female athymic nude mice (Crl:NU(Ncr)-Foxn1^nu, Charles River) were eight weeks old with a body weight (BW) range of 14.6 to 25.7 grams on Day 1 of the study. The animals were fed ad libitum water (reverse osmosis, 1 ppm Cl), and NIH 31 Modified and Irradiated Lab Diet® consisting of 18.0% crude protein, 5.0% crude fat, and 5.0% crude fiber. The mice were housed on irradiated Enrich-O'Cobs™ Laboratory Animal Bedding in static microisolators on a 12-hour light cycle at 20-22° C. (68-72° F.) and 40-60% humidity.
HCT116 human colon carcinoma cells were cultured in RPMI-1640 medium supplemented with 10% fetal bovine serum, 2 mM glutamine, 100 units/mL penicillin G sodium, 100 μg/mL streptomycin sulfate, and 25 μg/mL gentamicin. The tumor cells were grown in tissue culture flasks in a humidified incubator at 37° C., in an atmosphere of 5% CO2 and 95% air.
The HCT116 cells used for implantation were harvested during exponential growth and resuspended in 50% Matrigel (BD Biosciences): 50% phosphate buffered saline at a concentration of 2.5×10^7 cells/mL. On the day of tumor implant, each test mouse was injected subcutaneously in the right flank with 5×10^6 cells (0.2 mL cell suspension), and tumor growth was monitored as the average size approached the target range of 100 to 150 mm^3. Tumors were measured in two dimensions using calipers, and volume was calculated using the formula: Tumor Volume (mm^3)=(w^2×l)/2 where w=width and l=length, in mm, of the tumor. Tumor weight may be estimated with the assumption that 1 mg is equivalent to 1 mm^3 of tumor volume.
Ten days after tumor implantation, designated as Day 1 of the study, the animals were sorted into nine groups (Groups 1-9) each consisting of fifteen mice and one group (Group 10) consisting of ten mice.
BVD-523 doses were prepared by suspending the required amount of BVD-523 powder in 1% carboxymethyl cellulose (CMC) in deionized water (“Vehicle”). A 10 mg/mL BVD-523 stock was prepared, and was used to dose the 100 mg/kg BVD-523 group. Aliquots of the stock were diluted with the vehicle to a concentration of 5.0 mg/mL, which provided a 50 mg/kg BVD-523 dosage in a dosing volume of 10 mL/kg. The BVD-523 doses were stored at 4° C. for up to one week. The 1% CMC vehicle was used to dose the control group.
Paclitaxel (Lot CP2N10007) was purchased as a dry powder from Phyton Biotech, LLC (Fort Worth, Tex.). A paclitaxel stock solution (30 mg/mL) in 50% ethanol: 50% Cremophor EL was prepared and stored at room temperature protected from light during the dosing period. On each day of dosing, an aliquot of the paclitaxel stock was diluted with 5% dextrose in water (D5W) to yield a 3.0 mg/mL paclitaxel dosing solution in a vehicle consisting of 5% ethanol: 5% Cremophor EL: 90% D5W.
On Day 1 of the study, mice were sorted into nine groups (Group 1-9) each consisting of fifteen mice and one group (Group 10) consisting of ten mice, and dosing was initiated according to the treatment plan summarized in Table 4 below. All doses were given by oral gavage (p.o.) except paclitaxel, which was given i.v. For each agent, the dosing volume of 10 mL/kg (0.2 mL per 20 grams of BW) was scaled to the BW of the individual animal. […] For bid dosing, dosing was initiated in the afternoon of Day 1, so that one dose was given on the first day (“first day 1 dose”).
Group 1 received 1% CMC vehicle p.o. bid to end, and served as the control group for calculation of % TGD. Group 10 received paclitaxel i.v. at 30 mg/kg once every other day (qod) for five doses (qod×5), and served as the positive control for the model.
Groups 4 and 5 received 50 and 100 mg/kg BVD-523, respectively, p.o. bid to end.

HCT116 Parental = assay: Single agent proliferation assay (CellTiter-Glo, 72 h); assay type: cell-based, human; details: Homo sapiens, HCT-116, 72 h
Protocol: (§1) Cells were seeded in 96-well plates at the densities and media conditions indicated in Table 11 in McCoy's 5A containing either 10% FBS or 1% charcoal-stripped FBS (CS-FBS), and allowed to adhere overnight prior to addition of compound or vehicle control. Compounds were prepared from DMSO stocks to give the desired final concentrations. The final DMSO concentration was constant at 0.1%. Test compounds were incubated with the cells for 72 h at 37° C., 5% CO2 in a humidified atmosphere. CellTiter-Glo® reagent (Promega, Madison, Wis.) was added according to manufacturer's instructions and luminescence detected using the BMG FLUOstar plate reader (BMG Labtech, Ortenberg, Germany). The average media only background value was deducted and the data analysed using a 4-parameter logistic equation in GraphPad Prism (GraphPad Software, La Jolla, Calif.).

HCT116 PIK3CA (+/−) = assay: as above; assay type: cell-based, human; details: Homo sapiens, HCT-116, 72 h
Protocol: as §1, with “Compounds were prepared from DMSO stocks to give the desired final concentrations.” left out

[2] = Group 1 (vehicle) vs Group 4 (BVD-523 50 mg/kg po bid to end)
[3] = Group 4: BVD-523 50 mg/kg po bid to end
[4] = Group 5: BVD-523 100 mg/kg po bid to end

CC(C)Nc1cc(-c2c[nH]c(C(=O)N[C@H](CO)c3cccc(Cl)c3)c2)c(Cl)cn1 [BVD-523]
Overall activity in the HCT116 xenograft model ([1]; BVD-523 50 mg/kg p.o. bid to end): active
Are survival curves diff.? [1, 2]: Yes
Hazard Ratio [1, 2]: 4.813
Logrank test Chi square [1, 2]: 21.86
Median survival Ratio (Column A/Column B) [1, 2]: 0.7517
% TGD [1, 3]: 33%
MTV (n): number of animals on D 45 (45-day survivors) [1, 3]: (5)
MTV D 45 (median tumor volume) [1, 3]: 1666 mm^3
Median TTE [1, 3]: 43.5 days
Regressions CR [1, 3]: 0
Regressions PR [1, 3]: 0
Regressions TFS [1, 3]: 0
T − C [1, 3]: 10.8 days
% TGD [1, 4]: 38%
MTV (n): number of animals on D 45 (45-day survivors) [1, 4]: (11)
MTV D 45 (median tumor volume) [1, 4]: 405 mm^3
Median TTE [1, 4]: 45.0 days
Regressions CR [1, 4]: 0
Regressions PR [1, 4]: 0
Regressions TFS [1, 4]: 0
T − C [1, 4]: 12.3 days
pIC50 (HCT116 Parental; 1% CS-FBS): 7.70
pIC50 (HCT116 Parental; 10% FBS): 6.77
pIC50 (HCT116 PIK3CA (+/−); 1% CS-FBS): 8.00
pIC50 (HCT116 PIK3CA (+/−); 10% FBS): 6.92
